# Data from patent publication US11865183B2, “Conjugates and conjugating reagents comprising a linker that includes at least two (−CH2—CH2—O—) units in a ring” (priority 2016, dated 2024).
# Where “and” joins values, the source holds several entries; their conditions need not be identical. Identical values can stand only once. Non-standard residues stand in square brackets, D forms with d. Residues, ends and D or L forms follow the SMILES beside them. *: point of attachment. Dolaproine = CO[C@@H]([C@@H]1CCCN1)[C@@H](C)C(=O)O; Dil = CC[C@H](C)[C@H](NC)[C@@H](CC(=O)O)OC; X1 = C[C@@H](N*)[C@@H](O)c1ccccc1; NMeV = CN[C@H](C(=O)O)C(C)C
# Key:
# Karpas 299 cells (CD30) = test: In vitro cell viability assay (Cell-Titer Glo), Karpas 299; format: cell-based, Human; settings: Karpas 299, 96 h treatment
# Description: Viability was expressed as % of untreated cells and calculated using the following formula: […]
# LNCaP cells (PSMA) = test: In vitro cell viability assay (Cell-Titer Glo), LNCaP; format: cell-based; settings: 96 h treatment
# Description: (§1) Loss of tumour cell viability following treatment with cytotoxic drugs in vitro can be measured by growing cell lines in the presence of increasing concentrations of drug and quantifying the loss of proliferation or metabolic activity using Cell-Titer Glo® Luminescent reagent (Promega). The protocol for PSMA and CD30 overexpressing cell lines describes cell seeding, drug treatment and determination of the cell viability in reference to untreated cells based on ATP synthesis, which is directly correlated to the number of cells present in the well.
# (§2) The cell lines listed in Table 2 were maintained following the suppliers' recommendations.
# (§3) Adherent PSMA-positive LNCaP and C4-2 cells were detached with TrypLE and resuspended in complete medium. Cells were counted using disposable Neubauer counting chambers and cell density adjusted to 10×10^4 cells/mL for LNCaP and 2×10^4 cells/mL for C4-2, respectively. […]
# (§4) The cell viability assay was carried out using the Cell-Titer Glo® Luminescence reagent, as described by the manufacturer's instructions, (Promega Corp. Technical Bulletin TB288; Lewis Phillips G. D, Cancer Res 2008; 68:9280-9290).
# (§5) Luminescence was recorded using a Molecular Devices Spectramax i3x plate reader and data subsequently analysed using GraphPad Prism four parameter non-linear regression model. […]
# C4-2 cells (PSMA) = test: In vitro cell viability assay (Cell-Titer Glo), C4-2; format: cell-based; settings: C4-2, 96 h treatment
# Description: as §1, §2, §3, §4, §5
# [1] = test system: Karpas-299 cells (T-anaplastic large cell lymphoma, ALCL); test: Karpas-299 mouse xenograft study; format: in vivo, CB17-SCID mice; settings: single i.v. 1 mg/kg on day 12, groups of eight mice
# Procedure: Healthy female CB17-SCID mice (CBySmn.CB17-Prkdcscid/J, Charles River Laboratories) with an average body weight of 18.1 g were used for cell inoculation (Day 0). 24 to 72 h prior to tumour cell injection, the mice were γ-irradiated (1.44 Gy, ^60Co). The animals were maintained in SPF health status according to the FELASA guidelines in housing rooms under controlled environmental conditions.
# Tumours were induced by subcutaneous injection of 10^7 Karpas-299 cells (T-anaplastic large cell lymphoma, ALCL) in 200 μL of RPMI 1640 into the right flank. Tumours were measured twice a week with calipers, and the volume was estimated using the formula: […]
# Twelve days after tumour implantation (Day 12), the animals were randomised into groups of eight mice using Vivo manager® software (211 mm^3 mean tumour volume) and treatment was initiated. The animals from the vehicle group received a single intravenous (i.v.) injection of PBS. The treated groups were dosed with a single i.v. injection of ADC at 0.8 mg/kg, or Adcetris© (brentuximab vedotin) at 1 mg/kg.
# Treatment tolerability was assessed by bi-weekly body weight measurement and daily observation for clinical signs of treatment-related side effects. Mice were euthanized when a humane endpoint was reached (e.g. 1,600 mm^3 tumour volume) or after a maximum of 9 weeks post-dosing. Asterisks within the graphs indicate where animals were euthanized. […]
Compound,IC50 (Karpas 299 cells (CD30)),IC50 (LNCaP cells (PSMA)) [nM],IC50 (C4-2 cells (PSMA)) [nM],Animals with tumour re-growth ([1]; after day 20),Animals with no measureable tumour at end of study (day 71) [1]
"CC[C@H](C)[C@@H]([C@@H](CC(=O)N1CCC[C@H]1[C@H](OC)[C@@H](C)C(=O)N[C@H](C)[C@@H](O)c1ccccc1)OC)N(C)C(=O)[C@@H](NC(=O)[C@@H](NC)C(C)C)C(C)C [MMAE, monomethyl auristatin E] (H-[NMeV]V[Dil][Dolaproine]-X1)",0.15 nM and 0.2 nM,2.14,0.71,,
brentuximab vedotin [Adcetris®],,,,7/8,1/8
